Results: patent US12514859B2, “Pyrazole pyrimidine derivative and uses thereof” (Yissum Research Development Company of the Hebrew …, priority 2015, dated 2026)

Legend:
[1] = test system: bone marrow cells isolated from CML blast crisis mice; test: Ex vivo inhibitor effects on bone marrow cells from CML blast crisis mice; format: cell-based, mouse; conditions: 8 hours
Description: Ex vivo inhibitor effects (FIGS. 2A and 13A-E). Freshly isolated BM from AML (13A-E) or CML blast crisis (2A) carrying mice were grown in RPMI supplemented with 15% FCS, L-Glutamine, Pen/Strep, Hepes, Sodium Pyruvate and non-essential amino acids (Biological Industries, Israel). CKI inhibitors (A14, A51, A75 or A86) were dissolved in DMSO and added to the tissue culture medium at the indicated concentrations; control cultures were treated with DMSO only. Several hours following treatment (as indicated in each experiment), cells were harvested and counted manually using a camera and standard inverted light microscope. Dead cells were excluded using Trypan Blue (Sigma). AnnexinV-PE (MBL), 7AAD (Tonbo) and PD-L1 (BioLegend) staining was evaluated by FACS according to manufacturer's recommendation.
FACS analysis. All assays were performed on BD's equipment: FACS caliber, FACS ARIA sorter or LSR II machines. For immunostaining, cells were suspended in a 1% BSA/PBS buffer with […]. Cells were then analyzed by using Annexin V PE Apootosis Detection Kit (eBioscience), 7-AAD (TONBO biosciences) and PE anti-mouse CD274 (B7-H1, PD-L1) antibody (clone 10F.9G2, BioLegend); Assays were performed according to the manufacturer's instruction. Monoclonal antibodies specific for CD16 and CD32 (Miltenyi Biotec) were used for blockade of Fc receptors before staining.

IRAK1 = molecular target: T1, IRAK1 (Homo sapiens, UniProt P51617); test: Kd measurements for the interaction with IRAK1; format: binding
T1 construct: RKO cells were incubated for 16 hours at 37° C. with the indicated concentrations of compounds; endogenous in cells; host or cells: RKO cells, stimulated with TNFα
T1 sequence (P51617 whole entry): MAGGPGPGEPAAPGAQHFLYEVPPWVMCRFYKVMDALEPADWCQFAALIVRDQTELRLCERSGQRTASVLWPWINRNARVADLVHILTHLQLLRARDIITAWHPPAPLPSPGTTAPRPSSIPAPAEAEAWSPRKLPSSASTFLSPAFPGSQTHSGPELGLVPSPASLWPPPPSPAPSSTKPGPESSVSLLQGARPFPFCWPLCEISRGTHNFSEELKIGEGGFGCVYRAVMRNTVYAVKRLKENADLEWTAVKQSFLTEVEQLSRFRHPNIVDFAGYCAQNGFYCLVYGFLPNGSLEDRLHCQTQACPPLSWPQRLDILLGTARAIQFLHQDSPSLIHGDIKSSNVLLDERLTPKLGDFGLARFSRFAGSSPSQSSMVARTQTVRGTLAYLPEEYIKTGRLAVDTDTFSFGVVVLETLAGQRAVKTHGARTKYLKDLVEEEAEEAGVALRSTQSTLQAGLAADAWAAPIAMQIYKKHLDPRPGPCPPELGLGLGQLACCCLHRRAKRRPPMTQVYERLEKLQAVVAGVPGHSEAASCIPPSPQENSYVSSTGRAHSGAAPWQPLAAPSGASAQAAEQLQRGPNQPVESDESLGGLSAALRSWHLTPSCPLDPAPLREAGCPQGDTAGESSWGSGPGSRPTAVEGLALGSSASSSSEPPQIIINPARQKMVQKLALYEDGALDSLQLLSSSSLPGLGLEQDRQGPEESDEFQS

[2] = test system: p53, DNA damage response (γH2AX); test: p53 and DNA damage response activation in RKO cells (Western blot, primary screen and dose response); format: cell-based; conditions: 16 hours, Western blot, average value
Procedure, shortened: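 RKO colorectal cells exposed to 10 μM compound (primary screen) or descending concentrations (dose response) for 16 h at 37° C. Lysates Western-blotted for β-catenin, p53, CKIα and phospho-H2AX (S139), ECL detection. p53/DDR activation and β-catenin stabilization scored semi-quantitatively by degree of protein stabilization across several blots.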

CML blast crisis mice = test: CML blast crisis mouse model (BCR-ABL); format: in vivo; conditions: oral 10 mg/kg once a day, day 9
Description: Generation of a mouse model of CML blast crisis and inhibitor studies in this model. To generate the BCR-ABL-inducible chronic myeloid leukemia (CML) model, bone marrow (BM) cells from 10 weeks wild type mouse were extracted and enriched for cKit expressing cells (EasySep #18757) and incubated overnight at 37° C. in RPMI growth medium supplemented with 15% FCS, L-Glutamine, Pen/Strep (Biological Industries, Israel) and stem cell factor (SCF), IL-3, IL-6 and TPO (Peprotcch). The culture was then infected with p210BCR-ABL-IRES-GFP retrovirus construct containing supernatant medium for 4 hours, then growth medium was added and infected cells were incubated at 37° C. for additional 24 h. […] Upon observing a fast steady increase of GFP-expressing cells in the peripheral blood of inoculated mice (by FACS) and rising numbers of leukocyte and immature cells (detected by Wright-Giemsa stained blood films), mice were sacrificed and their BM cells were transferred to new sublethally irradiated WT hosts; each such transfer was termed disease generation. […] Blast crisis development was readily detectable by a highly abnormal number of blast cells, more than 30% of white blood cells (WBC) in the peripheral blood (PB), and short time intervals between transfers. […] Mice were monitored daily for cachexia, weight loss, lethargy, and ruff coats, and moribund mice were sacrificed upon moribund. […]

Q: With `Cn1ncc(-c2ccnc(N[C@H]3CC[C@H](N)CC3)n2)c1CC1CC1` [Compound A14, (1R, 4R)—N^1-(4-(5-(cyclopropylmethyl)-1-methyl-1H-pyrazol-4-yl)pyrimidin-2-yl)cyclohexane-1,4-diamine] as the compound, how does the “apoptosis of bone marrow cells (Annexin5+/7AAD−) (in words)” value ([1]; dose dependent) read?
A: The value was “induces apoptosis”.

Q: And the “total death (7AAD+) cells (in words)” value ([1]; dose dependent)?
A: The value was “increased percentage of total death (7AAD+) cells”.

Q: What about the “leukemic cell number (in words)” value ([1]; dose response) of the same compound?
A: The value was “dramatic reduction of the leukemic cell number”.

Q: What about the Kd (IRAK1) of the same compound?
A: The Kd was 11 nM.

Q: What about the “DDR & p53 activity” value [2] of the same compound?
A: The value was “+++ (+++ indicates maximal β-catenin or p53 stabilization at >2 μM)”.

Q: And the “leukemia cell burden in the peripheral blood and bone marrow (in words)” value (CML blast crisis mice)?
A: The value was “significantly reduces the leukemia cell burden”.
